The target of this assay is Metabotropic glutamate receptor 4 (Homo sapiens, UniProt Q14833). Put plainly: Ca2+ Mobilization In Vitro Assay: A monoclonal HEK-293 cell line stably transfected with a cDNA encoding for the human mGlu4 receptor was generated; for the work with mGlu4 Positive Allosteric Modulators (PAMs), a cell line with low receptor expression levels and low constitutive receptor activity was selected to allow the differentiation of agonistic versus PAM activity. Cells were cultured according to standard protocols (Freshney, 2000) in Dulbecco's Modified Eagle Medium with high glucose supplemented with 1 mM glutamine, 10% (vol/vol) heat-inactivated bovine calf serum, Penicillin/Streptomycin, 50 μg/ml hygromycin and 15 μg/ml blasticidin (all cell culture reagents and antibiotics from Invitrogen, Basel, Switzerland).About 24 hrs before an experiment, 5×10^4 cells/well were seeded in poly-D-lysine coated, black/clear-bottomed 96-well plates. The cells were loaded with 2.5 μM Fluo-4AM in loading buffer (1×HBSS, 20 mM HEPES) for 1 hr at 37° C. and washed five times with loading buffer. The cells were transferred into a Functional Drug Screening System 7000 (Hamamatsu, Paris, France), and 11 half logarithmic serial dilutions of test compound at 37° C. were added and the cells were incubated for 10-30 min. with on-line recording of fluorescence. […]. On the technique in general: Calcium flux is commonly read through the fluorescence of an indicator in the cells.

Structures are written as SMILES.

As usually defined, the EC50 is the concentration at which the effect is half-maximal.

Metabotropic glutamate receptor 4, sequence (Q14833 whole entry): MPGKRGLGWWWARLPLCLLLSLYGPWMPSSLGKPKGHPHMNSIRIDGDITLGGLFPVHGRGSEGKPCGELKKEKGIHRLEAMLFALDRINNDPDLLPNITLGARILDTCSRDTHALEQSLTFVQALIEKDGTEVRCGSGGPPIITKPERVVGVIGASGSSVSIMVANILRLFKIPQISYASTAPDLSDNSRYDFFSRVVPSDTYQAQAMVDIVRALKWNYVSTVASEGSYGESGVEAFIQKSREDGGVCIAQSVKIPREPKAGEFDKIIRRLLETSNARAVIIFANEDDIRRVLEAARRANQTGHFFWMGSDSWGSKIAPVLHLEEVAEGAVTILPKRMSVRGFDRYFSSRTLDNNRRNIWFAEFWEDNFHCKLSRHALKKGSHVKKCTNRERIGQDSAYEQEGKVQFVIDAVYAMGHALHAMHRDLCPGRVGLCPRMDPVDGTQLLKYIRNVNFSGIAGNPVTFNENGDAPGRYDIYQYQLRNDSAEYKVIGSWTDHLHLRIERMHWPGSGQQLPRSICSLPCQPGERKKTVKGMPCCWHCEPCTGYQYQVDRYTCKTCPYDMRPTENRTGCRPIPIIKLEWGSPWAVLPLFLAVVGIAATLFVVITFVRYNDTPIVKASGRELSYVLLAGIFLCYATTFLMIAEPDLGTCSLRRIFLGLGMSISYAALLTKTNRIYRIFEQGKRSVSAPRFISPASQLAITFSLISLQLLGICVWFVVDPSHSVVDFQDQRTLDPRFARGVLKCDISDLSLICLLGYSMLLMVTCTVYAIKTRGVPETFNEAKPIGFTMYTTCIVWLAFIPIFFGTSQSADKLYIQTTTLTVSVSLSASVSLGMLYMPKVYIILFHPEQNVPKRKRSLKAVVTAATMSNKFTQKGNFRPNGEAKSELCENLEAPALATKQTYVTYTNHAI

Regarding `CC(C)(C)Oc1ncc(N2CCN3C(=O)N(c4c(F)cc(C#Cc5ccccc5)cc4F)C(=O)C[C@@]3(C)C2=O)cn1`, the EC50 worked out at 157 nM.

The values above are taken from ChEMBL document CHEMBL5727155, “Ethynyl derivatives” (2018).
